Test results from patent US4042693A, “Derivatives of 1,2,4-thiadiazine” (A. Christiaens Societe Anonyme, priority 1975, dated 1977).

System: paw of rats
Test: Anti-inflammatory test: carrageenan-induced rat paw swelling (plethysmography), oral
Type: in vivo
Conditions: oral route one hour before carrageenan injection, swelling determined 4 hours after injection, versus control group, dose not given
Protocol: The compounds to be tested are given as freshly prepared solutions or suspensions by oral route one hour before injecting the paw of rats with carrageenan which is a known inflammatory agent.
The inflammatory agent (carrageenan) either in solution or suspension is then injected into the plantar tissue of the right hind paw of each rat, the left paw remaining untreated and serving as control. Each animal receives, for example, 0.05 ml of an aqueous solution containing 1% by weight of carrageenan and 0.9% of sodium chloride.
4 Hours after the injection of the inflammatory agent, the importance of swelling is determined by plethysmography and is expressed as a percent of the volume of the control paw.
The anti-inflammatory effect expressed as a percentage of inhibition is obtained by comparison between rats treated with the anti-inflammatory compound and a control group of rats.

| Structure (SMILES) | % inhibition of acute oedema [%] |
| --- | --- |
| O=S1(=O)N=C(c2ccccc2)N(c2cccc(C(F)(F)F)c2)c2ccncc21 [Example 1, 3-phenyl-4-metatrifluoromethylphenyl-4H-pyridino-[4,3-e]-1,2,4-thiadiazine-1,1-dioxide] | 53.6 |
| O=S1(=O)N=C(c2ccc(Cl)cc2)N(c2cc(Cl)cc(Cl)c2)c2ccncc21 [Example 2, 3-parachlorophenyl-4-(3',5'-dichlorophenyl)-4H-pyridino-[4,3-e]-1,2,4-thiadiazine-1,1-dioxide] | 57 |
| CCc1cccc(N2C(c3ccc(Cl)cc3)=NS(=O)(=O)c3cnccc32)c1 [Example 3, 3-parachlorophenyl-4-(3'-ethylphenyl)-4H-pyrido-[4,3-e]-1,2,4-thiadiazine-1,1-dioxide] | 60 |
| COc1cccc(N2C(c3ccccc3Cl)=NS(=O)(=O)c3cnccc32)c1 [Example 4, 3-orthochlorophenyl-4-(3-methoxyphenyl)-4H-pyrido-[4,3-e]-1,2,4-thiadiazine-1,1-dioxide] | 40 |
